Converted amounts (≈) assume the structure as drawn. Where two headings read alike, the source gives them in different places. *1 amine or outer side, *2 acyl side, *3 side chain or, on linkers, in order; H or OH if unused. Where a SMILES comes first, the peptide text is derived from it. [ ]: non-standard residue; d: D form. The star is where a group is joined. Camptothecin(20R,20-O) = CC[C@]1(O*)C(=O)OCc2c1cc1n(c2=O)Cc2cc3ccccc3nc2-1; X1 = CCCNC(=O)Nc1cccc(S(=O)(=O)Nc2cccc(C(CC(=O)O)N*)c2)c1; NH(1,4-C6H4)NHCS = S=C(Nc1ccc(N[*:1])cc1)[*:2]; CO = O=C([*:1])[*:2]; GABA = NCCCC(=O)O
Key:
αvβ3 receptor = biological target: T1, αvβ3 receptor (Homo sapiens, UniProt P05106+P06756); test: αvβ3 binding test (echistatin displacement, WGA SPA beads); details: αvβ3 from human A375 cells
T1 construct: αvβ3 from human A375 cells was purified; endogenous in cells; host or cells: human A375 cells (receptor purified from the cells, analogous to Wong et al. 1996)

HT29 = test: Growth inhibition test (MTT), cytotoxic action on tumour cell lines; type: cell-based, human
Method in brief: (§1)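 Cells seeded at 50,000/ml (B16F10 20,000/ml) in RPMI + 10% FCS, grown 1 day at 37 °C, then compound added in DMSO. Growth read on day 6 by MTT (5 h, 37 °C), isopropanol solubilisation, extinction at 595 nm; IC50 reported per line.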

SW 480 = test: as above; type: cell-based, human
Method in brief: as §1

B16F10 = test: as above; type: cell-based, mouse
Method in brief: as §1

hemopoietic stem cells = test: CSF-induced proliferation of hemopoietic stem cells (colony formation); type: cell-based, mice; details: murine bone marrow cells, GM-CSF, 7 days
Method: Bone marrow cells are flushed out of the femur of mice. 10^5 cells are incubated in McCoy 5A medium (0.3% agar) together with recombinant murine GM-CSF (Genzyme; parent cell colony formation) and the substances (10^−4 to 100 μg/ml) at 37° C. and 7% CO2. 7 days later, the colonies […] and clusters (17-50 cells) are counted.

MMP-2 = biological target: T2, MMP-2 (Homo sapiens, UniProt P08253); test: Cleavage of conjugates by MMP-2 in buffer (HPLC); type: biochemical; details: after 6 h incubation with MMP-2; buffer pH 7.5
T2 construct: purchased Calbiochem
T2 sequence (P08253 110-660): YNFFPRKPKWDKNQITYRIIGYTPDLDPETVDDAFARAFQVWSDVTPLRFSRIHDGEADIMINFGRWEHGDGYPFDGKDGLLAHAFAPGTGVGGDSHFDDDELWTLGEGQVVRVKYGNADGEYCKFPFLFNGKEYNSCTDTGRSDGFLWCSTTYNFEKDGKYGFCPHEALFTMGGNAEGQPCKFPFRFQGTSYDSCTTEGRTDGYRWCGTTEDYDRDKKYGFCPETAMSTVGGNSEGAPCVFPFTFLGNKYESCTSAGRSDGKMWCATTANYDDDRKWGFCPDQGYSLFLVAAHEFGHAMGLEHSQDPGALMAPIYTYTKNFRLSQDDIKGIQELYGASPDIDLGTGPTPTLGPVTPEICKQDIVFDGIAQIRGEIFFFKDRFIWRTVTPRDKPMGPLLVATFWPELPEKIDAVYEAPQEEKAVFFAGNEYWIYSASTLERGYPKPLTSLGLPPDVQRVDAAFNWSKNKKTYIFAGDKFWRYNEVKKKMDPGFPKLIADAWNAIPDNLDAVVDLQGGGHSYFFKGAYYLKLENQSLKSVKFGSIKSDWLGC
Method: 2.5 μl MMP-2 (Calbiochem) with a specific activity of 60 μU/μl are incubated with 10 nM of the conjugates exemplified in the example series 1-25 in 1 ml of a medium consisting of 50 mM Tris-HCl pH 7.5, 0.2 M NaCl, 10 mM CaCL2*2H2O and 0.05% Brij 35. The enzyme mediated cleavage of the conjugates is detected by HPLC analysis using an RP18 (5 μM) column with 70% HClO4/water (0.4% v/v) as eluent A and acentonitrile as eluent B (UV detection at […]). The efficiency of the cleavage is assessed by comparing the peak areas of the intact conjugate (starting material) and the cleavage product (tripeptide conjugate of camptothecin) after 6 h and 24 h incubation (cf. Table 5).

T1 sequence (P06756 31-889 limits assumed): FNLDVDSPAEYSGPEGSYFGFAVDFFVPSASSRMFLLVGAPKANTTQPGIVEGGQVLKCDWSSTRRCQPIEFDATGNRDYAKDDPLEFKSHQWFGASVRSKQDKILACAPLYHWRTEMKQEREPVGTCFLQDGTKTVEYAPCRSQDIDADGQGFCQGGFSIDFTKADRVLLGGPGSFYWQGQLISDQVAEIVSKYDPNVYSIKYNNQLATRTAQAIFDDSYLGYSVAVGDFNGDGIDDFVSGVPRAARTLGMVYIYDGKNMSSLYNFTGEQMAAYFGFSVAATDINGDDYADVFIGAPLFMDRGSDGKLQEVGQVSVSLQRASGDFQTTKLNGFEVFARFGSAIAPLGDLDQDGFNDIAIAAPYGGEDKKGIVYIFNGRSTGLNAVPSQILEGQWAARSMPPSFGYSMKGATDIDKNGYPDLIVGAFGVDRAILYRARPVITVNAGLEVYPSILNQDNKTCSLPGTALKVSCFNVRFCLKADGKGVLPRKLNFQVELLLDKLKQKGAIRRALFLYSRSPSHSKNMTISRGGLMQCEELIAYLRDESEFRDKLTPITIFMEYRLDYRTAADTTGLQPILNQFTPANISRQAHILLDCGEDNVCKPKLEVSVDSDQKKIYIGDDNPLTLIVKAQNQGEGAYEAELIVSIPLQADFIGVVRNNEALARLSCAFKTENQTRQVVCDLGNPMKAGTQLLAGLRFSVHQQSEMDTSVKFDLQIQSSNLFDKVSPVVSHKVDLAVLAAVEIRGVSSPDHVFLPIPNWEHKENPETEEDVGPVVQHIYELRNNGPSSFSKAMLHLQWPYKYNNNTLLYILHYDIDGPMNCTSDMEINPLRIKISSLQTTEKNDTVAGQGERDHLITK
T1 sequence (P06756 891-1048 partner limits assumed): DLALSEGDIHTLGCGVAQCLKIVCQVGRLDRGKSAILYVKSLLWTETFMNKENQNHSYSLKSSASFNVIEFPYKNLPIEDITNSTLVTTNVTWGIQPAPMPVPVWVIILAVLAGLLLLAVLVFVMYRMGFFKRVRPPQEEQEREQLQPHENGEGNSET
T1 sequence (P05106 27-788): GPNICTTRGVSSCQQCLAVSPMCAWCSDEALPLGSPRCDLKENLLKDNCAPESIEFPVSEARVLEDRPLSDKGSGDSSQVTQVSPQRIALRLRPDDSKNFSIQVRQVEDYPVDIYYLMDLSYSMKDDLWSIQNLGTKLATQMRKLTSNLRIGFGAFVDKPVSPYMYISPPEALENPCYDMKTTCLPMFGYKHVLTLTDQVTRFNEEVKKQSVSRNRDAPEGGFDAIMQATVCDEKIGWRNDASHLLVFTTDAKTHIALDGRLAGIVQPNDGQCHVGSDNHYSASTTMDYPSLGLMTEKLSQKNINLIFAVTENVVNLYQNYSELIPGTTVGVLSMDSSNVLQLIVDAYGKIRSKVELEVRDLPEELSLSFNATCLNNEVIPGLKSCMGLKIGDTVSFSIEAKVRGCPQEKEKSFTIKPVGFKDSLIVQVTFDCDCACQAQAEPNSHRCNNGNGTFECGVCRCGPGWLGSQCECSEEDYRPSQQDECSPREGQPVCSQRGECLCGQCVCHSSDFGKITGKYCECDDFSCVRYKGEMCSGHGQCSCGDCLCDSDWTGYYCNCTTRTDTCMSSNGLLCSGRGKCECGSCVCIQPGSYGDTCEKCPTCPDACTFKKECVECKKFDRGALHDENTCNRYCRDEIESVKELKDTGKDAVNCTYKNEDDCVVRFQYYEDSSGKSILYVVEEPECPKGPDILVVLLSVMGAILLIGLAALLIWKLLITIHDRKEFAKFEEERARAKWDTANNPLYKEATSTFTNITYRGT

`CCCNC(=O)Nc1cccc(S(=O)(=O)Nc2cccc(C(CC(=O)O)NC(=O)Nc3ccc(NC(=S)NCCCC(=O)N4CCC[C@@H]4C(=O)N[C@@H](CC(C)C)C(=O)NCC(=O)N[C@H](CC(C)C)C(=O)N[C@H](Cc4c[nH]cn4)C(=O)N[C@@H](C(=O)O[C@@]4(CC)C(=O)OCc5c4cc4n(c5=O)Cc5cc6ccccc6nc5-4)C(C)C)cc3)c2)c1` (stereo partly drawn) [Example 16] ({X1-CO}-[NH(1,4-C6H4)NHCS][GABA][dP]LG[dL][dH][dV]-{Camptothecin(20R,20-O)}) was tested, and the “IC50 values of the binding to the αvβ3 receptor” value (αvβ3 receptor) was “nix”, the IC50 (HT29; HT29, MTT after day 6, read-out: IC50 values of the cytotoxic action on tumour cell lines, HT29) was 25 nM and the IC50 (SW 480; SW480, MTT after day 6, read-out: IC50 values of the cytotoxic action on tumour cell lines, SW480) was 40 nM. For the same molecule, the IC50 (B16F10; B16F10, MTT after day 6, read-out: IC50 values of the cytotoxic action on tumour cell lines, B16F10) was 50 nM and the “IC50 values of the inhibition of colony formation of hemopoietic stem cells” value (hemopoietic stem cells) was 15 ng/mL.
In the case of `CC[C@@]1(O)C(=O)OCc2c1cc1n(c2=O)Cc2cc3ccccc3nc2-1` [Camptothecin, 20(S)-Camptothecin, reference compound], the IC50 (hemopoietic stem cells; Mus musculus, Bone marrow cell, 168 h, read-out: IC50 values of the inhibition of colony formation of hemopoietic stem cells) is reported as 0.25 ng/mL (≈ 0.718 nM).
Work on `CCCNC(=O)Nc1cccc(S(=O)(=O)Nc2cccc(C(CC(=O)O)NC(=O)Nc3ccc(NC(=S)N4CCC[C@@H]4C(=O)N[C@@H](CC(C)C)C(=O)NCC(=O)N[C@H](CC(C)C)C(=O)N[C@H](Cc4c[nH]cn4)C(=O)N[C@@H](C(=O)O[C@@]4(CC)C(=O)OCc5c4cc4n(c5=O)Cc5cc6ccccc6nc5-4)C(C)C)cc3)c2)c1` (stereo partly drawn) [Example 1] yielded an IC50 (αvβ3 receptor; read-out: IC50 values of the binding to the αvβ3 receptor) of 40 nM, an IC50 (HT29; human, 6 days) of 50 nM and an IC50 (SW 480; human, 6 days) of 70 nM. For the same molecule, the IC50 (B16F10; mouse, 6 days) was 250 nM, the “IC50 values of the inhibition of colony formation of hemopoietic stem cells” value (hemopoietic stem cells) was 30 ng/mL and the “MMP-2 mediated cleavage Peak area product/educt x100” value (MMP-2) was 17.
